In patent US10702512B2, “Treatment of debilitating fatigue” (A. CARLSSON RESEARCH AB, priority 2015, dated 2020):

Assays:
Type in all cases: in vivo, human
ME/CFS patients [1] = assay: Trail making test A (TMT A)
Description: Next, patients were evaluated using a neuropsychological test. 61 patients were included in a neuropsychological examination. All subjects were tested once in connection with the randomization with the BNIS neuropsychological screening test. 20-30 minutes was required for this test. With the purpose of measuring the cognitive effects of the OSU6162 treatment six more tests were distributed at a first occasion before the initiation of treatment and at a second occasion after the treatment was completed. These tests required 20 minutes each. All tests were performed by a neuropsychologist. Trail making test A (TMT A) requires the subject to draw a line as quickly as possible connecting a series of numbers. It is a time-based measure of attention, where time and quality are noted and requires motor effectiveness, visual scanning, speed and flexibility. The test has a high sensitivity for brain dysfunction.

ME/CFS patients [2] = assay: neuropsychological tests of cognitive functioning, overall; details: all neuropsychological tests employed; no significant difference vs placebo
ME/CFS patients [3] = assay: Trail making test B (TMT B)
Description: Next, patients were evaluated using a neuropsychological test. 61 patients were included in a neuropsychological examination. All subjects were tested once in connection with the randomization with the BNIS neuropsychological screening test. 20-30 minutes was required for this test. With the purpose of measuring the cognitive effects of the OSU6162 treatment six more tests were distributed at a first occasion before the initiation of treatment and at a second occasion after the treatment was completed. These tests required 20 minutes each. All tests were performed by a neuropsychologist. […] The subject follows a mental track and the test requires the ability to handle more than one stimulus at a time, as well as flexibility in shifting between different activities. It has a high sensitivity for brain dysfunction and is regarded to be related to prefrontal functioning.

[4] = OSU6162 concentration in blood plasma
Description: Next, the concentration of OSU6162 in blood plasma was measured and analyzed for correlations with time and changes in FF, MFS and BDI score.
Plasma concentrations of OSU6162 were measured in 30 patients who received placebo and in 31 patients who received OSU6162. The blood sample was drawn in the morning after the tablet was taken—the time of the tablet intake was noted and reported to the clinic by the patient. The blood sample was taken at minimum 65 and at maximum 180 minutes after tablet intake. The mean time was 123 minutes and the standard deviation 33 minutes.
In order to analyze the relationship between the treatment outcome and the concentration of OSU6162 in blood plasma, OSU6162 concentrations in patients measured after week 2 were plotted against change in FF, MFS and BDI score (FIGS. 6, 7 and 8).

ME/CFS patients [5] = assay: Barrow Neurological Institute Screen for Higher Cerebral Functions (BNIS)
Description: Next, patients were evaluated using a neuropsychological test. 61 patients were included in a neuropsychological examination. All subjects were tested once in connection with the randomization with the BNIS neuropsychological screening test. 20-30 minutes was required for this test. With the purpose of measuring the cognitive effects of the OSU6162 treatment six more tests were distributed at a first occasion before the initiation of treatment and at a second occasion after the treatment was completed. These tests required 20 minutes each. All tests were performed by a neuropsychologist. Barrow Neurological Institute Screen for Higher Cerebral Functions (BNIS) is a screening test constructed to quantitatively and qualitatively reflect the outcome of a range of higher cerebral functions. The three initial items are pre-screening items where arousal level, basic communication skills and level of cooperation are assessed (a maximum score of 9) to decide whether the status of the patients allows further testing. At least two points in each item are required. The BNIS contains the following domains: speech and language (maximum score 15), orientation (maximum score 3), attention/concentration (maximum score 3), visual and visual spatial problem solving (maximum score 8), learning and memory (maximum score 7), affect (maximum score 4) and awareness vs. performance (maximum score 1). The test provides a total score=50 of overall cognitive functioning and subscale scores. A score less than 47 indicates brain dysfunction.

ME/CFS patients [6] = assay: Clinical Global Impression of Change (CGI-C), phase II clinical study; details: for patients exhibiting improved CGI-C values: entire population
Description: As used herein “Clinical Global Impression of Change” (CGI-C) (also known as Clinical Global Impression—Improvement (CGI-I)) scale is a 7 point scale that requires the clinician to assess how much the patient's illness has improved or worsened relative to a baseline state at the beginning of the intervention. […] Circular coated tablets for oral use of 15 mg and matching placebos was used. The tablets were administered by research nurses at the study site. The tablets were circular coated tablets for oral use containing 15 mg OSU6162. Matching placebos were used. The start dose was 15 mg OSU6162 twice daily (before breakfast and lunch) during 1 week with dose increase up to 30 mg twice daily during the following week. Efficacy was measured according to ratings using the self-assessment questionnaire for mental fatigue and related symptoms (MFS) after neurological disorders and injuries (Johansson et al, supra). Another primary endpoint was the result of the rating by the Clinical Global Impression of Change (Guy, supra), which rating was made by the doctor in charge of the patient. CGI-C scores range from 1 (very much improved) through to 7 (very much worse). Clinical Global Impression of Change (CGI-C) was evaluated by the clinician for each patient.

[7] = OSU6162 group, tested once in connection with randomization

## CCCN1CCC[C@@H](c2cccc(S(C)(=O)=O)c2)C1.Cl [OSU6162, (3S)-3-[3-(methylsulfonyl)-phenyl]-1-propylpiperidine hydrochloride]
ME/CFS patients [1]; after treatment
  TMT A, max: 48 s
  TMT A, mean: 28.5
  TMT A, median: 29
  TMT A, min: 15
ME/CFS patients [1]; before and after treatment
  TMT A difference between OSU6162 and placebo groups: No significant differences
ME/CFS patients [1]; before treatment
  TMT A, max: 57 s
  TMT A, mean: 33.4
  TMT A, median: 32
  TMT A, min: 16
ME/CFS patients [1]; before vs after treatment
  TMT A, Difference: 10
ME/CFS patients [2]
  effect of treatment on cognitive abilities: does not affect the cognitive abilities
ME/CFS patients [3]; after treatment
  TMT B, max: 145 s
  TMT B, mean: 61.2
  TMT B, median: 29
  TMT B, min: 31
ME/CFS patients [3]; before and after treatment
  TMT B difference between OSU6162 and placebo groups: No significant differences
ME/CFS patients [3]; before treatment
  TMT B, max: 134 s
  TMT B, mean: 71.7
  TMT B, median: 32
  TMT B, min: 44
ME/CFS patients [3]; before vs after treatment
  TMT B, Difference: 10
[4]; Spearman rank correlation, sampling 65-180 minutes after tablet intake
  correlation between plasma concentration and time between tablet intake and blood sampling: No significant correlation
[4]; plasma after week 2 plotted against change in FF, MFS and BDI score, above 0.7 μM no further improvement
  therapeutic optimum plasma concentration: 0.3 to 0.7 µM
ME/CFS patients [5]; [7]
  BNIS total score, max: 50
  BNIS total score, mean: 45.2
  BNIS total score, min: 33
ME/CFS patients [5]; in vivo
  BNIS difference between OSU6162 and placebo groups: No significant difference
ME/CFS patients [6]; after one week of treatment (15 mg twice daily, oral), 13 of 30
  patients exhibiting improved CGI-C values: 43%
ME/CFS patients [6]; after two weeks of treatment (30 mg twice daily in week 2, oral), 17 of 30
  patients exhibiting improved CGI-C values: 57%
ME/CFS patients [6]; entire patient population
  difference in CGI-C between treatment groups (OSU6162 vs placebo): no significant difference
ME/CFS patients [6]; subgroup receiving concomitant antidepressant treatment, after one week, Mann-Whitney U-test p=0.0524
  CGI-C improvement vs placebo: clear tendency after one week for a greater improvement
